From article PMC10531311, “Anti-Inflammatory Activities of 8-Benzylaminoxanthines Showing High Adenosine A2A and Dual A1/A2A Receptor Affinity” (International Journal of Molecular Sciences, 2023)
Read-outs that look alike come from different tables or passages of the source.

Columns and labels:
[1] = molecular target: T1, human adenosine A2BR (Homo sapiens, UniProt P29275); assay: Radioligand binding at human adenosine A2B receptor vs. [3H]PSB-603; settings: for inhibition at 1 µM: CHO cells, read-out: A2BR vs. [³H]PSB-603 % Inhibition ± SEM at 1 µM; for Ki: human recombinant receptor in CHO cells, read-out: A2BR vs. [³H]PSB-603 Ki ± SEM
T1 construct: expressed in transfected cells; host or cells: CHO cells
T1 sequence (P29275 1-332): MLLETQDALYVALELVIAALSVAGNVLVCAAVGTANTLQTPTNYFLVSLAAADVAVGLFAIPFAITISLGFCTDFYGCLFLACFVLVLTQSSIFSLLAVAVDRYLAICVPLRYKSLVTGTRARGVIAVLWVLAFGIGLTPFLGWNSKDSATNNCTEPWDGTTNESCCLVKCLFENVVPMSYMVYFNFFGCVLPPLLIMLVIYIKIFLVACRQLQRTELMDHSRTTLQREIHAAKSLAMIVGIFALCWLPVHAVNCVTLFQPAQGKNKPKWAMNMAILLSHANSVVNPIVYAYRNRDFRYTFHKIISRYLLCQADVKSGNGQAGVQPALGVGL

[2] = molecular target: T2, human MAO B (Homo sapiens, UniProt P27338); assay: Human MAO B inhibition, fluorometric method; assay type: biochemical; settings: mean of two independent experiments, read-out: % of hMAO B Inhibition at 1 µM
T2 sequence (P27338 1-520): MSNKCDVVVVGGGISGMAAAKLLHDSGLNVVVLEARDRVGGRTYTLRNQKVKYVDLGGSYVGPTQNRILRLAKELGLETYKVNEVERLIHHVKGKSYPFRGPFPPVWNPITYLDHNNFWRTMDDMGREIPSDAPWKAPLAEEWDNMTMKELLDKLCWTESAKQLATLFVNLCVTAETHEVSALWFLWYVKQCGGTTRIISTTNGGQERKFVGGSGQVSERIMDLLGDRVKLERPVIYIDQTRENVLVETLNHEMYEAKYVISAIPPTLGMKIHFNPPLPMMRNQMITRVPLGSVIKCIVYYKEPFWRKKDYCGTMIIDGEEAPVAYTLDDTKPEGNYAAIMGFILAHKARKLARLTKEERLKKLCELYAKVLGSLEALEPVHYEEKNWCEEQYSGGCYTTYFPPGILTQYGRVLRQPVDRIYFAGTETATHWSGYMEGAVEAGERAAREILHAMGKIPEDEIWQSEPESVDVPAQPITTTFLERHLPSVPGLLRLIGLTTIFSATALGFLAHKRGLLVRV
Procedure: The compounds were tested twice in duplicates at a concentration of 1 μM by fluorometric method as previously described. Paratyramine (200 μM) was used as a substrate for the enzyme. Safinamide (1 μM; reversible) and rasagiline (1 μM; irreversible) were used as reference inhibitors.

[3] = Precipitation in culture medium seen under inverted microscope; assay type: physicochemical; settings: 25 μM, 50 μM, 100 μM
[4] = Metabolic stability in human liver microsomes; assay type: in vitro ADME; settings: for number of metabolites formed: HLMs, 120 min; for remaining at 2 h: human, liver microsomes, after 120 min of incubation with HLMs, read-out: % Remaining in the Reaction Mixture
Procedure: In our study, the compounds were incubated for 120 min with HLMs, followed by liquid chromatography-mass spectrometry (LC-MS) to identify the formed metabolites.
Human liver microsomes (HLMs) were purchased from Sigma-Aldrich (St. Louis, MO, USA; catalog nr M9066-1VL). The studies with microsomes were supported by MetaSite 6.0.1 software provided by Molecular Discovery Ltd. (Hertfordshire, UK), which allowed for the determination of the most probable sites of metabolism. The compounds were incubated with HLMs for 120 min. After the addition of methanol and centrifugation, the supernatants were analyzed with the Waters ACQUITY™ TQD system (Waters, Milford, CT, USA). All reference drugs used (caffeine, ketoconazole, quinidine and sulfaphenazole) were purchased from Sigma-Aldrich (St. Louis, MO, USA).

[5] = PAMPA blood brain barrier permeability; assay type: in vitro ADME
Procedure: The ability of compounds, especially those intended to act in the CNS, to penetrate the blood-brain barrier (BBB) is an important property to consider in the initial stages of drug candidate screening. The PAMPA assay is a commonly used test to assess the passive permeation of the BBB [17]. In our study, caffeine was used as a highly permeable compound. […] After 5 h of incubation at room temperature, the results were analyzed by LC-MS, and the permeability coefficients (Pe) were calculated.
For permeability evaluation, a PAMPA Gentest™ pre-coated […] system, provided by Corning (Tewksbury, MA, USA), was used. The precise procedure was previously described. The permeability coefficient Pe was calculated based on the given equations. Concentrations of the tested compounds in the apical and basolateral wells were determined by LC/MS analysis using an internal standard.

[6] = 100 μM in PBS, 5 h, room temperature, triplicate
[7] = 100 μM in PBS, 5 h, room temperature, triplicate, read-out: Pe ± SD

Structure (SMILES) | inhibition at 1 µM [1] | Ki [1] | inhibition at 1 µM [2] | behaviour in the culture medium at the highest concentrations [3] | number of metabolites formed [4] | remaining at 2 h [4] | Drug Retention [5] | Pe ± SD [5, 6] | Papp at 5 h, 100 μM [5, 7] | Papp at 5 h, 100 μM ([5]; read-out: Permeable)
C#CCn1c(=O)c2c(nc(NCc3ccccc3Cl)n2C)n(C)c1=O [compound 19, 8-((2-Chlorobenzyl)amino)-3,7-dimethyl-1-(prop-2-yn-1-yl)-3,7-dihydro-1H-purine-2,6-dione] | 14% | > 1000 nM | 6% | precipitated and formed crystals in the culture medium | two metabolites | > 95% | 51.78% | greater than 1.5 10^−6 cm/s | 3.13 ± 0.82 ×10⁻⁶ cm/s | ≥ 1.5 ×10⁻⁶ cm/s
C#CCn1c(=O)c2c(nc(NCc3c(F)cccc3Cl)n2C)n(C)c1=O [compound 22, 8-((2-Chloro-6-fluorobenzyl)amino)-3,7-dimethyl-1-(prop-2-yn-1-yl)-3,7-dihydro-1H-purine-2,6-dione] | 41% | > 1000 nM | 7% | precipitated and formed crystals in the culture medium | one metabolite | > 90% | 68.62% | 0.37 10^−6 cm/s | 0.37 ± 0.01 ×10⁻⁶ cm/s | ≤ 1.5 ×10⁻⁶ cm/s
C#CCn1c(=O)c2c(nc(NCc3cccc(Br)c3)n2C)n(C)c1=O [compound 24, 8-((3-Bromobenzyl)amino)-3,7-dimethyl-1-(prop-2-yn-1-yl)-3,7-dihydro-1H-purine-2,6-dione] | 25% | > 1000 nM | 10% | precipitated and formed crystals in the culture medium | one metabolite | > 95% | 93.30% | 0.89 10^−6 cm/s | 0.89 ± 0.71 ×10⁻⁶ cm/s | ≤ 1.5 ×10⁻⁶ cm/s
